Measurements published in PubChem BioAssay AID2060884 (Molecular Pharmacology Branch, DTP, NCI, 2025).
“And” between values parts separate entries of the source, which are not always exact repeats. Equal values may be shown once.

Tested on: NCI-H929 complex spheroids, viability % test/control
Experiment: Anticancer human tumor NCI-H929 cell line growth inhibition [RAS];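 further: compound exposure lasted seven days before viability was read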;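 on viability, T/C: 100% = DMSO vehicle control viability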
Details: for viability, T/C: stronger effect = lower value
In short: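 Tumour cells grown as complex spheroids with HUVEC endothelial cells and mesenchymal stem cells, treated with RAS pathway inhibitor combinations. Each agent spans half-log steps from near clinical Cmax, or 10 microM where Cmax is unknown.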

[1] = curve of first compound, second compound 0.0316 µM
[2] = curve of first compound, second compound 0.1 µM
[3] = curve of first compound, second compound 0.316 µM
[4] = curve of first compound, second compound 1 µM
[5] = second compound 0.0316 µM, first compound 0.0316 µM
[6] = second compound 0.0316 µM, first compound 0.1 µM
[7] = second compound 0.0316 µM, first compound 0.316 µM
[8] = second compound 0.0316 µM, first compound 1 µM
[9] = second compound 0.1 µM, first compound 0.0316 µM
[10] = second compound 0.1 µM, first compound 0.1 µM
[11] = second compound 0.1 µM, first compound 0.316 µM
[12] = second compound 0.1 µM, first compound 1 µM
[13] = second compound 0.316 µM, first compound 0.0316 µM
[14] = second compound 0.316 µM, first compound 0.1 µM
[15] = second compound 0.316 µM, first compound 0.316 µM
[16] = second compound 0.316 µM, first compound 1 µM
[17] = second compound 1 µM, first compound 0.0316 µM
[18] = second compound 1 µM, first compound 0.1 µM
[19] = second compound 1 µM, first compound 0.316 µM
[20] = second compound 1 µM, first compound 1 µM

C=CC(=O)Nc1cc(Nc2nccc(-c3cn(C)c4ccccc34)n2)c(OC)cc1N(C)CCN(C)C + CCn1c(-c2cccnc2C(C)OC)c2c3cc(ccc31)N1CCOC(CC(NC(=O)C(C(C)C)N(C)C(=O)C3(F)CCN(C(=O)C#CC(C)(C)N(C)C)CC3)C(=O)N3CCCC(N3)C(=O)OCC(C)(C)C2)C1
IC50 (curve of first compound, second compound 0.000949 µM): > 1000 nM | IC50 (curve of first compound, second compound 0.003 µM): > 1000 nM | IC50 (curve of first compound, second compound 0.00949 µM): > 1000 nM | IC50 (curve of first compound, second compound 0.03 µM): > 1000 nM | IC50 (curve of first compound, second compound 0.0949 µM): > 1000 nM | IC50 (curve of first compound, second compound 0.3 µM): > 1000 nM | viability, T/C (second compound 0.000949 µM, first compound 0.00316 µM): 105% | viability, T/C (second compound 0.000949 µM, first compound 0.01 µM): 98.3% | viability, T/C (second compound 0.000949 µM, first compound 0.0316 µM): 110% | viability, T/C (second compound 0.000949 µM, first compound 0.1 µM): 100% | viability, T/C (second compound 0.000949 µM, first compound 0.316 µM): 106% | viability, T/C (second compound 0.000949 µM, first compound 1 µM): 100% | viability, T/C (second compound 0.003 µM, first compound 0.00316 µM): 101% | viability, T/C (second compound 0.003 µM, first compound 0.01 µM): 103% | viability, T/C (second compound 0.003 µM, first compound 0.0316 µM): 103% | viability, T/C (second compound 0.003 µM, first compound 0.1 µM): 102% | viability, T/C (second compound 0.003 µM, first compound 0.316 µM): 106% | viability, T/C (second compound 0.003 µM, first compound 1 µM): 103% | viability, T/C (second compound 0.00949 µM, first compound 0.00316 µM): 99.2% | viability, T/C (second compound 0.00949 µM, first compound 0.01 µM): 101% | viability, T/C (second compound 0.00949 µM, first compound 0.0316 µM): 107% | viability, T/C (second compound 0.00949 µM, first compound 0.1 µM): 103% | viability, T/C (second compound 0.00949 µM, first compound 0.316 µM): 107% | viability, T/C (second compound 0.00949 µM, first compound 1 µM): 103% | viability, T/C (second compound 0.03 µM, first compound 0.00316 µM): 90.5% | viability, T/C (second compound 0.03 µM, first compound 0.01 µM): 100% | viability, T/C (second compound 0.03 µM, first compound 0.0316 µM): 108% | viability, T/C (second compound 0.03 µM, first compound 0.1 µM): 107% | viability, T/C (second compound 0.03 µM, first compound 0.316 µM): 110% | viability, T/C (second compound 0.03 µM, first compound 1 µM): 102% | viability, T/C (second compound 0.0949 µM, first compound 0.00316 µM): 95.6% | viability, T/C (second compound 0.0949 µM, first compound 0.01 µM): 102% | viability, T/C (second compound 0.0949 µM, first compound 0.0316 µM): 104% | viability, T/C (second compound 0.0949 µM, first compound 0.1 µM): 106% | viability, T/C (second compound 0.0949 µM, first compound 0.316 µM): 107% | viability, T/C (second compound 0.0949 µM, first compound 1 µM): 98.3% | viability, T/C (second compound 0.3 µM, first compound 0.00316 µM): 99.8% | viability, T/C (second compound 0.3 µM, first compound 0.01 µM): 102% | viability, T/C (second compound 0.3 µM, first compound 0.0316 µM): 103% | viability, T/C (second compound 0.3 µM, first compound 0.1 µM): 107% | viability, T/C (second compound 0.3 µM, first compound 0.316 µM): 105% | viability, T/C (second compound 0.3 µM, first compound 1 µM): 101%

O=C(c1ccc(F)c(F)c1Nc1ccc(I)cc1F)N1CC(O)([C@@H]2CCCCN2)C1 + C=CC(=O)N1CCN(c2nc(OCC3CCCN3C)nc3c(F)c(-c4nc(N)cc(C)c4C(F)(F)F)c(Cl)cc23)C(C)C1
IC50 (curve of first compound, second compound 0.00316 µM): > 1000 nM | IC50 (curve of first compound, second compound 0.01 µM): > 1000 nM | IC50 [1]: > 1000 nM | IC50 [2]: > 1000 nM | IC50 [3]: > 1000 nM | IC50 [4]: > 1000 nM | viability, T/C (second compound 0.00316 µM, first compound 0.00316 µM): 101% | viability, T/C (second compound 0.00316 µM, first compound 0.01 µM): 92.1% | viability, T/C (second compound 0.00316 µM, first compound 0.0316 µM): 85.7% | viability, T/C (second compound 0.00316 µM, first compound 0.1 µM): 88.7% | viability, T/C (second compound 0.00316 µM, first compound 0.316 µM): 112% | viability, T/C (second compound 0.00316 µM, first compound 1 µM): 55.4% | viability, T/C (second compound 0.01 µM, first compound 0.00316 µM): 102% | viability, T/C (second compound 0.01 µM, first compound 0.01 µM): 91.2% | viability, T/C (second compound 0.01 µM, first compound 0.0316 µM): 83.5% | viability, T/C (second compound 0.01 µM, first compound 0.1 µM): 94.2% | viability, T/C (second compound 0.01 µM, first compound 0.316 µM): 112% | viability, T/C (second compound 0.01 µM, first compound 1 µM): 58.3% | viability, T/C (second compound 0.0316 µM, first compound 0.00316 µM): 96.9% | viability, T/C (second compound 0.0316 µM, first compound 0.01 µM): 96.8% | viability, T/C [5]: 88.6% | viability, T/C [6]: 95.2% | viability, T/C [7]: 112% | viability, T/C [8]: 57.4% | viability, T/C (second compound 0.1 µM, first compound 0.00316 µM): 99.2% | viability, T/C (second compound 0.1 µM, first compound 0.01 µM): 93.4% | viability, T/C [9]: 89.1% | viability, T/C [10]: 93.3% | viability, T/C [11]: 113% | viability, T/C [12]: 56.7% | viability, T/C (second compound 0.316 µM, first compound 0.00316 µM): 97.8% | viability, T/C (second compound 0.316 µM, first compound 0.01 µM): 101% | viability, T/C [13]: 84.3% | viability, T/C [14]: 92.7% | viability, T/C [15]: 117% | viability, T/C [16]: 54.4% | viability, T/C (second compound 1 µM, first compound 0.00316 µM): 106% | viability, T/C (second compound 1 µM, first compound 0.01 µM): 97.5% | viability, T/C [17]: 91.3% | viability, T/C [18]: 104% | viability, T/C [19]: 116% | viability, T/C [20]: 54%

NC1c2ccccc2OC12CCN(c1cnc3c(N4CCCc5ncccc54)n[nH]c3n1)CC2 (stereo unspecified) + C#Cc1c(F)ccc2cc(O)cc(-c3ncc4c(N5CC6CCC(C5)N6)nc(OCC56CCCN5CC(F)C6)nc4c3F)c12
IC50 [1]: > 10000 nM | IC50 [2]: > 10000 nM | IC50 [3]: > 10000 nM | IC50 [4]: > 10000 nM | IC50 (curve of first compound, second compound 3.16 µM): > 10000 nM | IC50 (curve of first compound, second compound 10 µM): > 10000 nM | viability, T/C [5]: 100% | viability, T/C [6]: 91.8% | viability, T/C [7]: 104% | viability, T/C [8]: 100% | viability, T/C (second compound 0.0316 µM, first compound 3.16 µM): 104% | viability, T/C (second compound 0.0316 µM, first compound 10 µM): 70.2% | viability, T/C [9]: 95.9% | viability, T/C [10]: 98% | viability, T/C [11]: 101% | viability, T/C [12]: 101% | viability, T/C (second compound 0.1 µM, first compound 3.16 µM): 105% | viability, T/C (second compound 0.1 µM, first compound 10 µM): 64.8% | viability, T/C [13]: 99.2% | viability, T/C [14]: 97.4% | viability, T/C [15]: 105% | viability, T/C [16]: 99.8% | viability, T/C (second compound 0.316 µM, first compound 3.16 µM): 104% | viability, T/C (second compound 0.316 µM, first compound 10 µM): 67.8% | viability, T/C [17]: 98.3% | viability, T/C [18]: 96.5% | viability, T/C [19]: 106% | viability, T/C [20]: 106% | viability, T/C (second compound 1 µM, first compound 3.16 µM): 99.7% | viability, T/C (second compound 1 µM, first compound 10 µM): 67.2% | viability, T/C (second compound 3.16 µM, first compound 0.0316 µM): 96.3% | viability, T/C (second compound 3.16 µM, first compound 0.1 µM): 98.7% | viability, T/C (second compound 3.16 µM, first compound 0.316 µM): 99% | viability, T/C (second compound 3.16 µM, first compound 1 µM): 101% | viability, T/C (second compound 3.16 µM, first compound 3.16 µM): 103% | viability, T/C (second compound 3.16 µM, first compound 10 µM): 59.5% | viability, T/C (second compound 10 µM, first compound 0.0316 µM): 95.9% | viability, T/C (second compound 10 µM, first compound 0.1 µM): 94.7% | viability, T/C (second compound 10 µM, first compound 0.316 µM): 98.6% | viability, T/C (second compound 10 µM, first compound 1 µM): 97.3% | viability, T/C (second compound 10 µM, first compound 3.16 µM): 82.1% | viability, T/C (second compound 10 µM, first compound 10 µM): 53.6%

CC(Nc1ccc2c(c1)OCCn1cc(N3C(=O)OCC3C(F)F)nc1-2)C(N)=O (stereo unspecified)
viability, T/C (compound 0.0316 µM): 106% [middle of 4 runs] | viability, T/C (compound 0.1 µM): 102% [middle of 4 runs] | viability, T/C (compound 0.316 µM): 107% (2×) and 97.8% and 109% | viability, T/C (compound 1 µM): 108% [middle of 4 runs] | IC50 (curve of compound): > 10000 nM and 6140 nM and 6230 nM
